Reference: patent publication US20110039874A1, “MONOACYLGLYCEROL LIPASE INHIBITORS FOR MODULATION OF CANNABINOID ACTIVITY” (Northeastern University, priority 2007, published 2011)

| SMILES | melting point |
| --- | --- |
| O=S(=O)(F)CCCCCCCc1ccc(OCc2ccccc2)cc1 [Compound 13.1, 7-(4-Benzyloxy-phenyl)-heptanesulfonyl fluoride] | 35 to 38 °C |
| O=S(=O)(F)CCCCCc1ccc(OCc2ccccc2)cc1 [Compound 13.4, 5-(4-Benzyloxy-phenyl)-pentanesulfonyl fluoride] | 66 to 68 °C |
| O=S(=O)(F)CCCCCCCc1ccc(O)cc1 [Compound 14.1, 7-(4-Hydroxy-phenyl)-heptanesulfonyl fluoride] | 47 to 51 °C |
| O=S(=O)(F)CCCCOc1ccccc1 [Compound 17, 4-Phenoxybutylsulfonyl fluoride] | 74 to 76 °C |
| COS(=O)(=O)CCCCCCCc1ccc(OCc2ccccc2)cc1 [Compound 18, 7-(4-Benzyloxy-phenyl)-heptane-1-sulfonic acid methyl ester] | 57 to 59 °C |
| Cc1nnc(C(=O)CCCCCCOc2ccc(O)cc2)o1 [Compound 66, 7-(4-Hydroxy-phenoxy)-1-(5-methyl-1,3,4-oxadiazol-2-yl)-heptan-1-one] | 134 to 135 °C |

Other lines, results leading:

| melting point | SMILES |
| --- | --- |
| 76 to 77 °C | Oc1cccc(OCCCC(O)(O)C(F)(F)F)c1 (hydrate or solvate) [Compound 24.5, 1,1,1-Trifluoro-2,2-dihydroxy-5-[3-(hydroxy)phenoxy]pentane] |
| 59 to 61 °C | O=C(CCCOc1ccc(OCc2ccccc2)cc1)C(F)(F)F [Compound 23.1, 1,1,1-Trifluoro-5-[4-(benzyloxy)phenoxy]-2-pentanone] |
| 95.5 to 96 °C | O=C(CCCCOc1ccc(OCc2ccccc2)cc1)C(F)(F)F [Compound 23.2, 1,1,1-Trifluoro-6-[4-(Benzyloxy)phenoxy]-2-hexanone] |
| 59 to 60 °C | O=C(CCCCCOc1ccc(OCc2ccccc2)cc1)C(F)(F)F [Compound 23.3, 1,1,1-Trifluoro-7-[4-(Benzyloxy)phenoxy]-2-heptanone] |
| 82 to 83 °C | O=C(CCCCCCOc1ccc(OCc2ccccc2)cc1)C(F)(F)F [Compound 23.4, 1,1,1-Trifluoro-8-[4-(Benzyloxy)phenoxy]-2-octanone] |
| 50 to 51 °C | O=C(CCCOc1ccccc1OCc1ccccc1)C(F)(F)F [Compound 23.8, 1,1,1-Trifluoro-5-[2-(Benzyloxy)phenoxy]-2-pentanone] |
| 31 to 32 °C | O=C(CCCCCOc1ccccc1OCc1ccccc1)C(F)(F)F [Compound 23.10, 1,1,1-Trifluoro-7-[2-(Benzyloxy)phenoxy]-2-heptanone] |
| 50 to 51 °C | O=C(CCCCOc1ccccc1)C(F)(F)F [Compound 23.12, 1,1,1-Trifluoro-6-phenoxy-2-hexanone] |
| 63 to 64 °C | O=C(CCCCOc1ccc(O)cc1)C(F)(F)F [Compound 24.2, 1,1,1-Trifluoro-6-[4-(hydroxy)phenoxy]-2-hexanone] |
| 61 to 62 °C | O=C(CCCCCCOc1ccc(O)cc1)C(F)(F)F [Compound 24.4, 1,1,1-Trifluoro-8-[4-(hydroxy)phenoxy]-2-octanone] |
| 51 to 52 °C | O=C(CCCCOc1ccccc1O)C(F)(F)F [Compound 24.9, 1,1,1-Trifluoro-6-[2-(hydroxy)phenoxy]-2-hexanone] |
| 118 to 120 °C | Cc1nnc(C(=O)CCCCCCOc2ccc(OCc3ccccc3)cc2)o1 [Compound 65.2, 7-(4-Benzyloxy-phenoxy)-1-(5-methyl-1,3,4-oxadiazol-2-yl)-heptan-1-one] |
